Results published in US6436948B1, “Method for the treatment of psoriasis and genital warts” (priority 1995, dated 2002).
Read-outs that look alike come from different tables or passages of the source.

What was measured:
HepG2 tumors = assay: HepG2 xenograft in NCr nude mice; format: in vivo, human; settings: 25 mg/kg twice a day on days 0 through 4, NCr nude mice
Method: (§1) FIG. 5 is a graph of the inhibition of human tumor growth by […]. Three to six week old NCr nude mice were inoculated subcutaneously in each flank with 2×10^6 HepG2 or DU-145 cells. Treatment was started when the tumors were in an advanced stage of growth. Drugs were administered twice a day on days 0 through 4 and tumor sizes were measured on the indicated days. […] Each data point represents the means±SD of 10 tumors in graph A and six tumors in graph B.
(§2) Three to six-week-old NCr nude mice (Taconic Immunodeficient Mice and Rats) were inoculated s.c. in each flank with 2×10^6HepG2 or DU-145 cells and tumors were allowed to grow. Treatment was started when the tumors were 100-250mg as determined by caliper measurement and calculated according to the formula:
(§3) Tumor Weight(mg)=length(mm)×width(mm^2)÷2
(§4) Drugs were given at the indicated doses on days 0 through 4 and tumor sizes were measured every several days. The tumor growth curves were generated as described in Bell, et al., Cancer(phila.) 36:2437-2440 (1975), and are illustrated in FIGS. 5(a) and 5(b).

NCr nude mice = format: in vivo; settings: mouse, in vivo, 25 mg/kg
Method: as §4
Toxicity was evaluated by changes in body weight.

[1] = system: DU-145 prostate carcinoma line; assay: In vitro cytotoxicity, methylene blue assay / cell count: DU-145; format: cell-based; settings: read-out: ID50 (the source's name)
CEM cells = assay: In vitro cytotoxicity, methylene blue assay / cell count: CEM; format: cell-based; settings: three generations, mean ± standard deviation of five experiments, read-out: ID50 (the source's name)
DU-145 tumors = assay: DU-145 xenograft in NCr nude mice; format: in vivo, human; settings: 25 mg/kg twice a day on days 0 through 4, NCr nude mice
Method: as §1, §2, §3, §4

[2] = system: PC-3 prostate carcinoma line; assay: In vitro cytotoxicity, methylene blue assay / cell count: PC-3; format: cell-based; settings: three generations, mean ± standard deviation of five experiments, read-out: ID50 (the source's name)
HepG2 cells = assay: In vitro cytotoxicity, methylene blue assay / cell count: HepG2; format: cell-based; settings: three generations, mean ± standard deviation of five experiments, read-out: ID50 (the source's name)
[3] = system: KB nasopharyngeal carcinoma cell line; assay: In vitro cytotoxicity, methylene blue assay / cell count: KB; format: cell-based; settings: three generations, mean ± standard deviation of five experiments, read-out: ID50 (the source's name)
2.2.15 line = assay: In vitro cytotoxicity, methylene blue assay / cell count: 2.2.15; format: cell-based; settings: three generations, mean ± standard deviation of five experiments, read-out: ID50 (the source's name)
Method: Cells in logarithmic growth were plated at a density of 5000 cells/mL/well in 24-well plates. Drugs were added to the cells at different dosages and cultures were maintained for a period of three generations. At the end of this time, methylene blue assays were performed and/or cell numbers were directly counted. […] IC50 values were determined by interpolation of the plotted data. Each value shown is the mean± standard deviation of five experiments with each data point done in duplicate.
HepG2 cells originate from hepatocellular carcinoma and the 2.2.15 line is derived from HepG2 cells which were transfected with a copy of the hepatitis B virus genome.

tumor cell lines tested = assay: In vitro cytotoxicity, statement on all tumor cell lines tested; format: cell-based; settings: all of the tumor cell lines tested

Nc1ccn([C@@H]2O[C@H](CO)[C@@H](O)[C@@H]2O)c(=O)n1 [AraC, Cytosine arabinoside]
Effect on HepG2 tumors in words (HepG2 tumors): ineffective | Effect on HepG2 tumors in words (HepG2 tumors; listed as arac): inactive | Toxicity as indicated by weight loss of the animals (NCr nude mice): equally toxic | IC50 ([1]; Homo sapiens): 170 ± 35 nM | IC50 (CEM cells; Homo sapiens, CCRF-CEM): 30 ± 10 nM | Effect on DU-145 tumors in words (DU-145 tumors): ineffective | IC50 [2]: 200 ± 78 nM | IC50 (HepG2 cells; Homo sapiens): 125 ± 13 nM | IC50 [3]: 152 ± 10 nM

O=c1ccn(C2COC(CO)O2)c(=O)[nH]1 (single isomer, unassigned; (-)) [(−)-OddU]
IC50 ([1]; three generations, mean ± standard deviation of five experiments): > 30000 nM | IC50 (CEM cells): > 30000 nM | IC50 [2]: > 30000 nM | IC50 (HepG2 cells): > 30000 nM | IC50 (2.2.15 line): > 30000 nM | Cytotoxicity in words (tumor cell lines tested): not toxic | IC50 [3]: > 30000 nM
